Laboratory results: patent US7868013B2, “Cycloalkyl substituted pyrimidinediamine compounds and their uses” (Rigel Pharmaceuticals, Inc., priority 2004, dated 2011)
Counter-ions that a name gives are not always drawn.

Tests used:
[1] = tested on: H1299 (non-small cell lung carcinoma); test: In vitro antiproliferation assay, H1299 cells (TABLE 1 6 point assay; TABLE 2); type: cell-based; details: Homo sapiens, NCI-H1299, H1299 cells; 6 point assay; read-out: H1299, 6pt (IC50, inhibition of proliferation)
Method: (§1) Certain compounds were tested against other cell types for their ability to inhibit proliferation in standard antiproliferation assays.

[2] = tested on: A549 (lung carcinoma); test: In vitro antiproliferation assay, A549 cells (TABLE 1 6 point assay; TABLE 2); type: cell-based; details: Homo sapiens, A549, A549 cells; 6 point assay; read-out: A549, 6pt (IC50, inhibition of proliferation)
Method: as §1

SMILES | IC50 [1] [nM] | IC50 [2] [nM]
CN(C)CCN1CCc2cc(Nc3ncc(F)c(N[C@@H]4[C@H](C(N)=O)[C@H]5C=C[C@@H]4C5)n3)ccc21 (racemic) [compound 160, Racemic-(2-exo,3-exo)-N4-[3-aminocarbonylbicyclo[2.2.1]hept-5-en-2-yl)-N2-[1-(2-dimethylaminoethyl)-2,3-dihydroindol-5-yl]-5-fluoro-2,4-pyrimidinediamine] | ≤ 100 | 100 to 1000
Cn1ccc2cc(Nc3ncc(F)c(NC4C5C=CC(C5)C4C(N)=O)n3)ccc21 (racemic) [compound 161, Racemic-(2-exo,3-exo)-N4-[3-aminocarbonylbicyclo[2.2.1]hept-5-ene-2-yl)-5-fluoro-N2-(1-methylindol-5-yl)-2,4-pyrimidinediamine] | 100 to 1000 | 100 to 1000
CN(C)CCn1ccc2ccc(Nc3ncc(F)c(NC4C5C=CC(C5)C4C(N)=O)n3)cc21 (racemic) [compound 163, Racemic-(2-exo,3-exo)-N4-[3-aminocarbonylbicyclo[2.2.1]hept-5-en-2-yl)-N2-[1-(2-dimethylaminoethyl)indol-6-yl]-5-fluoro-2,4-pyrimidinediamine] | 100 to 1000 | 100 to 1000
CN(C)CCn1ccc2ccc(Nc3ncc(F)c(NC4C5C=CC(C5)C4C(=O)NC4CC4)n3)cc21 (racemic) [compound 169, Racemic-(2-exo,3-exo)-N4-[3-cyclopropylaminocarbonylbicyclo[2.2.1]hept-5-en-2-yl)-N2-[1-(2-dimethylaminoethyl)indol-6-yl]-5-fluoro-2,4-pyrimidinediamine] | 100 to 1000 | ≤ 100
CN(C)CCN1CCc2cc(Nc3ncc(F)c(NC4C5C=CC(C5)C4C(N)=O)n3)ccc21 (racemic) [compound 171, Racemic-(2-exo, 3-exo)-N4-(3-aminocarbonylbicyclo[2.2.1]hept-5-en-2-yl)-5-fluoro-N2-[N-(2-dimethylaminoethyl)-2,3-dihydro-indol-5-yl]-2,4-pyrimidinediamine Bis Hydrogen Chloride Salt] | 100 to 1000 | 100 to 1000
CN(C)CCn1ccc2cc(Nc3ncc(F)c(NC4C5C=CC(C5)C4C(=O)NC4CC4)n3)ccc21 (racemic) [compound 175, Racemic-(2-exo,3-exo)-N4-[3-cyclopropylaminocarbonylbicyclo[2.2.1]hept-5-en-2-yl)-N2-[1-(2-dimethylaminoethyl)indol-5-yl]-5-fluoro-2,4-pyrimidinediamine] | ≤ 100 | ≤ 100
CN(C)CCN1CCc2cc(Nc3ncc(F)c(NC4C5C=CC(C5)C4C(=O)NC4CCC4)n3)ccc21 (racemic) [compound 176, Racemic-(2-exo,3-exo)-N4-[3-cyclobutylaminocarbonylbicyclo[2.2.1]hept-5-en-2-yl)-N2-[1-(2-dimethylaminoethyl)-2,3-dihydroindol-5-yl]-5-fluoro-2,4-pyrimidinediamine] | ≤ 100 | ≤ 100
CN(C)CCN1CCc2cc(Nc3ncc(F)c(NC4C5CCC(C5)C4C(=O)NC4CC4)n3)ccc21 (racemic) [compound 178, Racemic-(2-exo,3-exo)-N4-[3-cyclopropylaminocarbonylbicyclo[2.2.1]hept-2-yl)-N2-[1-(2-dimethylaminoethyl)-2,3-dihydro-indol-5-yl]-5-fluoro-2,4-pyrimidinediamine] | ≤ 100 | ≤ 100
CN(C)CCn1ccc2ccc(Nc3ncc(F)c(NC4C5CCC(C5)C4C(=O)NC4CC4)n3)cc21 (racemic) [compound 179, Racemic-(2-exo,3-exo)-N4-[3-cyclopropylaminocarbonylbicyclo[2.2.1]hept-2-yl)-N2-[1-(2-dimethylaminoethyl)indol-6-yl]-5-fluoro-2,4-pyrimidinediamine] | 100 to 1000 | 100 to 1000
CS(=O)(=O)N1CCc2cc(Nc3ncc(F)c(NC4C5CCC(C5)C4C(=O)NC4CC4)n3)ccc21 (racemic) [compound 180, Racemic-(2-exo,3-exo)-N4-[3-cyclopropylaminocarbonylbicyclo[2.2.1]hept-2-yl)-5-fluoro-N2-[1-methylsulfonyl-2,3-dihydro-indol-5-yl]-2,4-pyrimidinediamine] | ≤ 100 | ≤ 100
CNC(=O)C1C2C=CC(C2)C1Nc1nc(Nc2ccc3c(ccn3CCN(C)C)c2)ncc1F (racemic) [compound 183, Racemic-(2-exo,3-exo)-N2-[1-(2-dimethylaminoethyl)indol-5-yl]-5-fluoro-N4-[3-methylaminocarbonylbicyclo[2.2.1]hept-5-en-2-yl)-2,4-pyrimidinediamine] | ≤ 100 | ≤ 100

Other lines, results leading:

IC50 [1] [nM] | IC50 [2] [nM] | SMILES
≤ 100 | ≤ 100 | Cc1cc(Nc2ncc(F)c(NC3C4C=CC(C4)C3C(=O)NC(C)C)n2)ccc1N1CCN(C)CC1 (racemic) [compound 162]
≤ 100 | ≤ 100 | Cc1cc(Nc2ncc(F)c(NC3C4C=CC(C4)C3C(=O)NC3CC3)n2)ccc1N1CCN(C)CC1 (racemic) [compound 164, Racemic-(2-exo,3-exo)-N4-[3-(N-cyclopropyl)aminocarbonylbicyclo[2.2.1]hept-5-en-2-yl)-5-fluoro-N2-[3-methyl-4-(4-methylpiperazin-1-yl)phenyl]-2,4-pyrimidinediamine]
≤ 100 | ≤ 100 | Cc1cc(Nc2ncc(F)c(NC3C4C=CC(C4)C3C(=O)NC3CCC3)n2)ccc1N1CCN(C)CC1 (racemic) [compound 165, Racemic-(2-exo,3-exo)-N4-[3-(N-cyclobutyl)aminocarbonylbicyclo[2.2.1]hept-5-en-2-yl]-5-fluoro-N2-[3-methyl-4-(4-methylpiperazin-1-yl)phenyl]-2,4-pyrimidinediamine]
≤ 100 | ≤ 100 | CNC(=O)C1C2C=CC(C2)C1Nc1nc(Nc2ccc(N3CCN(C)CC3)c(C)c2)ncc1F (racemic) [compound 166, Racemic-(2-exo,3-exo)-N4-[3-(N-methyl)aminocarbonylbicyclo[2.2.1]hept-5-en-2-yl)-5-fluoro-N2-[3-methyl-4-(4-methylpiperazin-1-yl)phenyl]-2,4-pyrimidinediamine]
≤ 100 | ≤ 100 | CCNC(=O)C1C2C=CC(C2)C1Nc1nc(Nc2ccc(N3CCN(C)CC3)c(C)c2)ncc1F (racemic) [compound 167, Racemic-(2-exo,3-exo)-N4-[3-(N-ethyl)aminocarbonylbicyclo[2.2.1]hept-5-en-2-yl]-5-fluoro-N2-[3-methyl-4-(4-methylpiperazin-1-yl)phenyl]-2,4-pyrimidinediamine]
≤ 100 | ≤ 100 | CCCNC(=O)C1C2C=CC(C2)C1Nc1nc(Nc2ccc(N3CCN(C)CC3)c(C)c2)ncc1F (racemic) [compound 168, Racemic-(2-exo,3-exo)-5-fluoro-N2-[4-(4-methylpiperazin-1-yl)-3-methylphenyl]-N4-[3-(N-n-propyl)aminocarbonylbicyclo[2.2.1]hept-5-en-2-yl]-2,4-pyrimidinediamine]
≤ 100 | ≤ 100 | CN(C)CCN1CCc2cc(Nc3ncc(F)c(NC4C5C=CC(C5)C4C(=O)NC4CC4)n3)ccc21 (racemic) [compound 170, Racemic-(2-exo,3-exo)-N4-[3-cyclopropylaminocarbonylbicyclo[2.2.1]hept-5-en-2-yl)-N2-[1-(2-dimethylaminoethyl)-2,3-dihydroindol-5-yl]-5-fluoro-2,4-pyrimidinediamine]
100 to 1000 | 100 to 1000 | CN1CCc2cc(Nc3ncc(F)c(NC4C5C=CC(C5)C4C(N)=O)n3)ccc21 (racemic) [compound 174, Racemic-(2-exo,3-exo)-N4-[3-aminocarbonylbicyclo[2.2.1]hept-5-en-2-yl)-5-fluoro-N2-(1-methy-2,3-dihydrolindol-5-yl)-2,4-pyrimidinediamine]
100 to 1000 | ≤ 100 | CNC(=O)C1C2C=CC(C2)C1Nc1nc(Nc2ccc3c(c2)CCN3CCN(C)C)ncc1F (racemic) [compound 177, Racemic-(2-exo,3-exo)-N2-[1-(2-dimethylaminoethyl)-2,3-dihydroindol-5-yl]-5-fluoro-N4-[3-N-methylaminocarbonylbicyclo[2.2.1]hept-5-ene-2-yl]-2,4-pyrimidinediamine]
≤ 100 | ≤ 100 | CNC(=O)C1C2C=CC(C2)C1Nc1nc(Nc2ccc3c(c2)CCN3S(C)(=O)=O)ncc1F (racemic) [compound 181, Racemic-(2-exo,3-exo)-5-fluoro-N4-[3-methylaminocarbonylbicyclo[2.2.1]hept-5-en-2-yl)-N2-[1-methylsulfonyl-2,3-dihydroindol-5-yl]-2,4-pyrimidinediamine]
≤ 100 | ≤ 100 | CCNC(=O)C1C2C=CC(C2)C1Nc1nc(Nc2ccc3c(c2)CCN3S(C)(=O)=O)ncc1F (racemic) [compound 182, Racemic-(2-exo,3-exo)-N4-[3-ethylaminocarbonylbicyclo[2.2.1]hept-5-en-2-yl)-5-fluoro-N2-[1-methylsulfonyl-2,3-dihydro-indol-5-yl]-2,4-pyrimidinediamine]
≤ 100 | ≤ 100 | CCNC(=O)C1C2C=CC(C2)C1Nc1nc(Nc2ccc3c(c2)OCCN3CCN(C)C)ncc1F (racemic) [compound 184, Racemic-(2-exo,3-exo)-N4-[3-N-ethylminocarbonylbicyclo[2.2.1]hept-5-en-2-yl)-5-fluoro-N2-{1-[2-(dimethylamino)ethyl]-3,4-dihydro-4H-benz[1,4]oxazin-6-yl}-2,4-pyrimidinediamine]
